Measured values published in US4416884A, “Piperazinylbenzoheterocyclic compounds” (Otsuka Pharmaceutical Co., Ltd., priority 1978, dated 1983).
Converted amounts (≈) assume the structure as drawn. Where two headings read alike, the source gives them in different places.

What was measured:
[1] = system: Aeromonas salmonicida IFO 12659; test: antimicrobial activity on bacteria which cause infectious diseases in fish; type: cell-based
Method: (§1) The antimicrobial activity of the following test compounds on various test organisms listed below was determined by the serial dilution method on agar plate (Heart Infusion agar produced by Difco Co.) (see CHEMOTHERAPY 22, pp. 1126-1128 (1974)), and the minimum inhibitory concentrations (mcg/ml) obtained are shown in Table 1 below.
(§2) A sample of each test organism was prepared so that the population of the organism was 1×10^8 cells/ml (O.D. 660 mμ=0.07 to 0.16) and 1×10^6 cells/ml (which was obtained by diluting the above 1×10^8 cells/ml preparation).
(§3) In the same manner as above, the antimicrobial activity of the following compounds on various test organisms which cause infectious diseases in fish was determined.

[2] = system: Aeromonas salmonicida IFO 12718; test: as above; type: cell-based
Method: as §1, §2, §3

[3] = system: Vibrio anguillarum IFO 13266; test: as above; type: cell-based
Method: as §1, §2, §3

[4] = system: Aeromonas hydrophila IFO 12981; test: as above; type: cell-based
Method: as §1, §2, §3

[5] = system: Pseudomonas fluorescens IFO 12180; test: as above; type: cell-based; conditions: IFO12180, read-out: Minimum Inhibitory Concentration
Method: as §1, §2, §3

[6] = system: Vibrio anguillarum IFO 12710; test: as above; type: cell-based
Method: as §1, §2, §3

[7] = system: Aeromonas hydrophila IFO 12658; test: as above; type: cell-based
Method: as §1, §2, §3

[8] = system: Pseudomonas fluorescens IFO 12568; test: as above; type: cell-based
Method: as §1, §2, §3

[9] = system: Klebsiella pneumoniae ST-101; test: antimicrobial activity, serial dilution method on agar plate; type: cell-based
How it was run: (§4)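 MIC (mcg/ml) determined by agar plate serial dilution on Heart Infusion agar. Inocula prepared at 1×10^8 cells/ml (O.D. 660 mμ 0.07–0.16) and at 1×10^6 cells/ml by dilution.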

[10] = system: Escherichia Coli NIHJ; test: as above; type: cell-based
How it was run: as §4

[11] = system: Serattia marcescens IFO 12648; test: as above; type: cell-based
How it was run: as §4

[12] = system: Pseudomonas aeruginosa ATCC 10145; test: as above; type: cell-based
How it was run: as §4

[13] = system: Salmonella typhi 0-901 (NCTC 8393); test: as above; type: cell-based; conditions: Salmonella enterica, read-out: Minimum Inhibitory Concentration
How it was run: as §4

[14] = system: Proteus vulgaris IID OX-19; test: as above; type: cell-based; conditions: read-out: Minimum Inhibitory Concentration
How it was run: as §4

[15] = system: Proteus rettgeri NIH 96; test: as above; type: cell-based; conditions: Providencia rettgeri
How it was run: as §4

[16] = system: Klebsiella pneumoniae; test: as above; type: cell-based
How it was run: as §4

[17] = system: Proteus morganii IID Kono; test: as above; type: cell-based; conditions: Morganella morganii
How it was run: as §4

[18] = system: Shigella Sonnei EW 33; test: as above; type: cell-based; conditions: read-out: Minimum Inhibitory Concentration
How it was run: as §4

[19] = system: Escherichia Coli NIHJ JC-2 (IFO 12734); test: as above; type: cell-based; conditions: Escherichia coli, read-out: Minimum Inhibitory Concentration
How it was run: as §4

[20] = system: Yersinia enterocolitica 0-3; test: as above; type: cell-based
How it was run: as §4

[21] = system: Bacillus subtilis PCI 219; test: as above; type: cell-based
How it was run: as §4

[22] = system: Staphylococcus aureus FDA 209 P; test: as above; type: cell-based
How it was run: as §4

[23] = acute toxicity by intravenous administration in mice; conditions: mouse, in vivo, i.v., mice not fed for 12 hours
Method: The acute toxicity of the compounds of this invention having the formula (I) was determined by intravenous administration (i.v.) in mice which had not been fed for 12 hours prior to the test. LD50 values (50% lethal dose) obtained are set forth below:
In the same manner as above, LD50 values were determined for all the other test compounds and the LD50 values obtained were at least 500 mg/kg.

[24] = read-out: Minimum Inhibitory Concentration, inoculum 1 × 10^6 cells/ml
[25] = read-out: Minimum Inhibitory Concentration, inoculum 1 × 10^8 cells/ml

`O=C(O)c1cn2c3c(c(N4CCNCC4)ccc3c1=O)CCC2` [B] gave an MIC ([1]; IFO12659, inoculum 10^6, read-out: Minimum Inhibitory Concentration) of 0.8 µg/mL (≈ 2.55 µM), an MIC ([1]; IFO12659, inoculum 10^8, read-out: Minimum Inhibitory Concentration) of 1.6 µg/mL (≈ 5.11 µM) and an MIC ([2]; IFO12718, inoculum 10^6, read-out: Minimum Inhibitory Concentration) of 0.4 µg/mL (≈ 1.28 µM). The MIC ([2]; IFO12718, inoculum 10^8, read-out: Minimum Inhibitory Concentration) was 0.8 µg/mL (≈ 2.55 µM), the MIC ([3]; IFO13266, read-out: Minimum Inhibitory Concentration, inoculum 10^6) was 0.4 µg/mL (≈ 1.28 µM) and the MIC ([3]; IFO13266, read-out: Minimum Inhibitory Concentration, inoculum 10^8) was 0.8 µg/mL (≈ 2.55 µM). It also gave an MIC ([4]; IFO12981, inoculum 10^6, read-out: Minimum Inhibitory Concentration) of 0.4 µg/mL (≈ 1.28 µM), an MIC ([4]; IFO12981, inoculum 10^8, read-out: Minimum Inhibitory Concentration) of 0.8 µg/mL (≈ 2.55 µM) and an MIC [5] of 6.3 µg/mL (≈ 20.1 µM). It also gave an MIC ([6]; IFO12710, read-out: Minimum Inhibitory Concentration, inoculum 10^6) of 3.1 µg/mL (≈ 9.89 µM), an MIC ([6]; IFO12710, read-out: Minimum Inhibitory Concentration, inoculum 10^8) of 12.5 µg/mL (≈ 39.9 µM) and an MIC ([7]; IFO12658, inoculum 10^6, read-out: Minimum Inhibitory Concentration) of 0.8 µg/mL (≈ 2.55 µM). It also gave an MIC ([7]; IFO12658, inoculum 10^8, read-out: Minimum Inhibitory Concentration) of 1.6 µg/mL (≈ 5.11 µM), an MIC ([8]; IFO12568, read-out: Minimum Inhibitory Concentration, inoculum 10^6) of 25 µg/mL (≈ 79.8 µM) and an MIC ([8]; IFO12568, read-out: Minimum Inhibitory Concentration, inoculum 10^8) of 50 µg/mL (≈ 160 µM). It also gave an MIC ([9]; ST101, read-out: Minimum Inhibitory Concentration, inoculum 1 × 10^6 cells/ml) of 1.6 µg/mL (≈ 5.11 µM), an MIC ([9]; ST101, read-out: Minimum Inhibitory Concentration, inoculum 1 × 10^8 cells/ml) of 1.6 µg/mL (≈ 5.11 µM) and an MIC [10, 24] of 0.8 µg/mL (≈ 2.55 µM). The MIC [10, 25] was 1.6 µg/mL (≈ 5.11 µM), the MIC [11, 24] was 3.1 µg/mL (≈ 9.89 µM) and the MIC [11, 25] was 6.3 µg/mL (≈ 20.1 µM). For the same compound, the MIC ([12]; ATCC10145, read-out: Minimum Inhibitory Concentration, inoculum 1 × 10^6 cells/ml) was 6.3 µg/mL (≈ 20.1 µM), the MIC ([12]; ATCC10145, read-out: Minimum Inhibitory Concentration, inoculum 1 × 10^8 cells/ml) was 12.5 µg/mL (≈ 39.9 µM) and the MIC ([13]; inoculum 1 × 10^6 cells/ml) was 0.8 µg/mL (≈ 2.55 µM). For the same compound, the MIC ([13]; inoculum 1 × 10^8 cells/ml) was 0.8 µg/mL (≈ 2.55 µM), the MIC ([14]; IIDOX19, inoculum 1 × 10^6 cells/ml) was 1.6 µg/mL (≈ 5.11 µM) and the MIC ([14]; IIDOX19, inoculum 1 × 10^8 cells/ml) was 12.5 µg/mL (≈ 39.9 µM). It also gave an MIC ([15]; NIH96, read-out: Minimum Inhibitory Concentration, inoculum 1 × 10^6 cells/ml) of 1.6 µg/mL (≈ 5.11 µM), an MIC ([15]; NIH96, read-out: Minimum Inhibitory Concentration, inoculum 1 × 10^8 cells/ml) of 1.6 µg/mL (≈ 5.11 µM) and an MIC [16, 24] of 1.6 µg/mL (≈ 5.11 µM). The MIC [16, 25] was 6.3 µg/mL (≈ 20.1 µM), the MIC [17, 24] was 6.3 µg/mL (≈ 20.1 µM) and the MIC [17, 25] was 12.5 µg/mL (≈ 39.9 µM). The MIC ([18]; inoculum 1 × 10^6 cells/ml) was 1.6 µg/mL (≈ 5.11 µM), the MIC ([18]; inoculum 1 × 10^8 cells/ml) was 1.6 µg/mL (≈ 5.11 µM) and the MIC [19] was 3.1 µg/mL (≈ 9.89 µM). For the same compound, the MIC ([20]; Yersinia enterocolitica, 03, read-out: Minimum Inhibitory Concentration, inoculum 1 × 10^6 cells/ml) was 3.1 µg/mL (≈ 9.89 µM), the MIC ([20]; Yersinia enterocolitica, 03, read-out: Minimum Inhibitory Concentration, inoculum 1 × 10^8 cells/ml) was 12.5 µg/mL (≈ 39.9 µM) and the MIC ([21]; PCI219, read-out: Minimum Inhibitory Concentration, inoculum 1 × 10^6 cells/ml) was 12.5 µg/mL (≈ 39.9 µM). It also gave an MIC ([21]; PCI219, read-out: Minimum Inhibitory Concentration, inoculum 1 × 10^8 cells/ml) of 12.5 µg/mL (≈ 39.9 µM), an MIC ([22]; FDA209, read-out: Minimum Inhibitory Concentration, inoculum 1 × 10^6 cells/ml) of 12.5 µg/mL (≈ 39.9 µM) and an MIC ([22]; FDA209, read-out: Minimum Inhibitory Concentration, inoculum 1 × 10^8 cells/ml) of 2.5 µg/mL (≈ 7.98 µM). For the same compound, the LD50 [23] was 1100 mg/kg.
